Patent US8779141B2, “Viral inhibitors” (Gilead Sciences, Inc., priority 2002, dated 2014)
≈ marks a conversion by molar mass, not a printed value. Where two headings read alike, the source gives them in different places.

Experiments:
[1] = Proliferation of exponentially growing Huh-5-2 cells (MTS); format: cell-based; details: human, exponentially growing Huh-5-2 cells (HCV replicon cell line); Table 11; inhibition of proliferation of exponentially growing Huh-5-2 cells by 50%
Description: (§1) Cells were seeded at a density of 7000 cells per well in 96 well View Plate™ (Packard) in medium containing the same components as described above, except for G418. Cells were allowed to adhere and proliferate for 24 hr. At that time, culture medium was removed and serial dilutions of the test compounds were added in culture medium lacking G418. Interferon alfa 2a (500 IU) was included as a positive control. Plates were further incubated at 37° C. and 5% CO2 for 72 hours. Replication of the HCV replicon in Huh-5 cells results in luciferase activity in the cells. Luciferase activity is measured by adding 50 μl of 1× Glo-lysis buffer (Promega) for 15 minutes followed by 50 ul of the Steady-Glo Luciferase assay reagent (Promega). Luciferase activity is measured with a luminometer and the signal in each individual well is expressed as a percentage of the untreated cultures. […] Instead the density of the culture is measured by means of the MTS method (Promega).

[2] = tested on: HCV replicon (RNA) synthesis in Huh-5-2 cells; test: Quantitative analysis of HCV replicon RNA by Taqman real-time RT-PCR in Huh-5-2 cells; format: cell-based, Hepatitis C Virus; details: for Delta CT: higher value = more profound inhibition of viral RNA synthesis; for CT: real-time RT-PCR, untreated 28.86 ± 0.04
Description: Replicon cells were plated at 7.5×10^3 cells per well in a 96-well plate plates at 37° C. and 5% CO2 in Dulbecco's modified essential medium containing 10% fetal calf serum, 1% nonessential amino acids and 1 mg/ml Geneticin. After allowing 24 h for cell attachment, different dilutions of compound were added to the cultures. Plates were incubated for 5 days, at which time RNA was extracted using the Qiamp Rneazyi Kit (Qiagen, Hilden, Germany). […] After initial activation of uracil-N-glycosylase at 50° C. for 2 minutes, RT was performed at 60° C. for 30 minutes, followed by inactivation of uracil-N-glycosylase at 95° C. for 5 minutes. Subsequent PCR amplification consisted of 40 cycles of denaturation at 94° C. for 20 seconds and annealing and extension at 62° C. for 1 minute in an ABI 7700 sequence detector. For each PCR run, negative template and positive template samples were used. The cycle threshold value (Ct-value) is defined as the number of PCR cycles for which the signal exceeds the baseline, which defines a positive value. The sample was considered to be positive if the Ct-value was <50. Results are expressed as genomic equivalents (GE).

[3] = tested on: HCV replicon in Huh-5-2 cells; test: Anti-HCV replicon assay, luciferase activity in Huh-5-2 cells; format: cell-based; details: Hepatitis C virus, Table 11, inhibition of luciferase activity in the replicon system by 50%
Description: as §1

[4] = tested on: BVDV-1 (strain PE515); test: Anti-BVDV assay, virus-induced cytopathic effect in MDBK cells (MTS); format: cell-based, Bovine Viral Diarrhea Virus; details: reduction of virus induced cytopathic effect in MDBK cells by 50%
Description: (§2) Madin-Darbey Bovine Kidney (MDBK) cells were maintained in Dulbecco's modified Eagle medium (DMEM) supplemented with BVDV-free 5% fetal calf serum (DMEME-FCS) at 37° C. in a humidified, 5% CO2 atmosphere. BVDV-1 (strain PE515) was used to assess the antiviral activity in MDBK cells. Vero cells were maintained in the same way as MDBK cells. Vero cells were infected with Coxsackie B3 virus (strain Nancy).
Ninety-six-well cell culture plates were seeded with MDBK cells in DMEM-FCS so that cells reached 24 hr later confluency. Then medium was removed and serial 5-fold dilutions of the test compounds were added in a total volume of 100 ul, after which the virus inoculum (100 ul) was added to each well. […] Uninfected cells and cells receiving virus without compound were included in each assay plate. After 5 days, medium was removed and 90 μl of DMEM-FCS and 10 ul of MTS/PMS solution (Promega) was added to each well. Following a 2 hr incubation period at 37° C. the optical density of the wells was read at 498 nm in a microplate reader.

[5] = Cytostatic effect on exponentially growing MDBK cells (MTS); format: cell-based, Bovine; details: bovine; Table 9; reduction of growth of exponentially growing MDBK cells by 50%; mean of 2-5 determinations
Description: (§3) Madin-Darbey Bovine Kidney (MDBK) cells were maintained in Dulbecco's modified Eagle medium (DMEM) supplemented with BVDV-free 5% fetal calf serum ([…]) at 37° C. in a humidified, 5% CO2 atmosphere. […] Vero cells were maintained in the same way as MDBK cells. […] The effect of the drugs on exponentially growing MDBK cells was assessed as follows. Cells were seeded at a density of 5000 cell/well in 96 well plates in MEM medium (Gibco) supplemented with 10% fetal calf serum, 2 mM L-glutamine (Life Technologies) and bicarbonate (Life Technologies). […] Cultures were then again further incubated for 3 days after which the effect on cell growth was quantified by means of the MTS method (Promega).

[6] = tested on: MDBK cells; test: as above; format: cell-based, Bovine; details: for MTC: Table 10, mean toxic concentration, reduces growth of exponentially growing MDBK cells by 50%
Description: as §3

[7] = tested on: Coxsackie B3 virus (strain Nancy); test: Anti-coxsackie virus assay, cytopathic effect in Vero cells (MTS); format: cell-based; details: Enterovirus B, Table 13, reduction of virus (CBV-3 Nancy strain)-induced cytopathic effect in Vero cells by 50%
Description: as §2
(§4) Ninety-six-well cell culture plates were seeded with Vero cells in DMEM medium containing 10 fetal calf serum (FCS) so that cells reached confluency 24-48 hr later. Medium was then removed and serial 5-fold dilutions of the test compounds were added in a total volume of 100 ul, after which the virus inoculum (100 μl) was added to each well. […] Uninfected cells and cells receiving virus without compound were included in each asay plate. After 5 days, the medium was removed and 90 μl of DMEM-FCS and 10 μl of MTS/PMS solution (Promega) was added to each well. Following a 2 hr incubation period at 37° C., the optical density of the wells was read at 498 nm in a microplate reader. The 50% effective concentration (EC50) value was defined as the concentration of compound that protects 50% of the cell monolayer from virus-induced cytopathic effect.

[8] = tested on: Vero cells; test: Metabolism of confluent Vero cells (MTS); format: cell-based; details: Table 13; reduction of metabolism of confluent Vero cells by 50%, MTS method
Description: as §2, §4

[9] = tested on: BVDV (strain NADL); format: cell-based, Bovine Viral Diarrhea Virus; details: GPJN22-resistant BVDV (F224S)
Description: Wild type BVDV (strain NADL) was twice plaque purified on MDBK cells. The entire coding region of the genome of this virus was sequenced. This plaque purified and sequenced virus was then cultured in the presence of increasing drug concentrations of compound (GPJN22). Following 12 passages, the virus was at least 25 fold resistant to compound GPJN22. The resistant virus preparation was again plaque purified. The entire coding region of the genome of this virus was sequenced. A mutation F224S in the RNA dependent RNA polymerase gene of the virus was detected in 4 out of 4 clones of this virus; no other mutations were detected in the resistant viruses. The GPJN22-resistant virus was cross-resistant with VP32947 (see Table 8). VP32947 is an earlier reported selective inhibitor of BVDV replication [Baginski S G et al., Proc Natl Acad Sci USA. 2000 Jul. 5; 97(14):7981-6]. In VP32947-resistant BVDV, a similar mutation was identified as being responsible for the drug-resistance. To confirm that the F224S mutation is indeed responsible for the resistant phenotype, the mutation was reintroduced by site-directed mutagenesis in an full-length infectious clone of the BVDV (strain NADL) [Vassilev et al., J. Virol. 1997 January; 71(1):471-8.].

[10] = Bovine viral diarrhea virus isolates and strains, Table 9, BVDV strain PE515, mean of 2-5 determinations, read-out: EC50
[11] = Bovine viral diarrhea virus isolates and strains, Table 10, read-out: EC50

Brc1ccc(Cn2ccc3nc(-c4ccccn4)nc-3c2)cc1 [GPJN-58, 5-[(4-Bromophenyl)methyl]-2-(2-pyridinyl)-5H-imidazo[4,5-c]pyridine]
CC50 at 72 hours [1]: 2 µg/mL (≈ 5.48 µM)
Delta CT ([2]; 0.0016 ug/ml): 0.05
CT ([2]; 0.0016 ug/ml): 28.91
Delta CT ([2]; 0.008 ug/ml): 0.89
CT ([2]; 0.008 ug/ml): 29.75
Delta CT ([2]; 0.04 ug/ml): 1.03
CT ([2]; 0.04 ug/ml): 29.89
Delta CT ([2]; 0.2 ug/ml): 1.14
CT ([2]; 0.2 ug/ml): 30.00
Delta CT ([2]; 1 ug/ml): 4
CT ([2]; 1 ug/ml): 32.86
EC50 [3]: 0.13 µg/mL (≈ 0.356 µM)
EC50 [4, 10]: 52 ng/mL (≈ 0.142 µM)
CC50 at 3 days [5]: 8.1 µg/mL (≈ 22.2 µM)

Fc1ccccc1-c1nc2ccn(Cc3ccc(Cl)cc3)cc-2n1 [GPJN-112, 5-[(4-Chlorophenyl)methyl]-2-(2-fluorophenyl)-5H-imidazo[4,5-c]pyridine]
CC50 at 72 hours [1]: > 17 µg/mL
EC50 [3]: 0.29 µg/mL (≈ 0.859 µM)
EC50 [4, 11]: 4.9 ng/mL (≈ 0.0145 µM)
MTC [6]: 20 µg/mL

Fc1ccccc1-c1nc2ccn(Cc3ccc(I)cc3)cc-2n1 [GPJN-113, 2-(2-Fluorophenyl)-5-[(4-iodophenyl)methyl]-5H-imidazo[4,5-c]pyridine]
CC50 at 72 hours [1]: 14 µg/mL (≈ 32.6 µM)
EC50 [3]: 0.17 µg/mL (≈ 0.396 µM)
EC50 [4, 11]: 3.1 ng/mL (≈ 0.00722 µM)
MTC [6]: 20 µg/mL

Fc1cccc(F)c1Cn1ccc2nc(-c3c(F)cccc3F)nc-2c1 [GPRTI-8, 2-(2,6-Difluorophenyl)-5-[(2,6-difluorophenyl)methyl]-5H-imidazo[4,5-c]pyridine]
EC50 [7]: 12.2 µg/mL (≈ 34.1 µM)
TC50 [8]: >100 µg/mL
EC50 [4, 10]: 137 ng/mL (≈ 0.383 µM)
melting point: 195 to 197 °C
CC50 at 3 days [5]: > 79 µg/mL

CCCN(CCC)CCSc1nnc2c(n1)[nH]c1ccccc12 [VP32947, 3-[((2-dipropylamino)ethyl)thio]-5H-1,2,4-triazino[5,6-b]indole, reference compound]
cross-resistance of the GPJN22-resistant virus [9]: cross-resistant
EC50 ([4]; Table 9, BVDV strain PE515, mean of 2-5 determinations): 3 ng/mL (≈ 0.00911 µM)
CC50 ([6]; Table 9, reduction of growth of exponentially growing MDBK cells by 50%, mean of 2-5 determinations): 47 µg/mL (≈ 143 µM)
